According to patent US11078202B2, “β-lactamase inhibitor and use thereof” (priority 2018, dated 2021):
Where a name gives a salt, the structure may show the parent alone.

Experiments:
Format in all cases: cell-based
[1] = tested on: Klebsiella pneumoniae XNWB 0004; test: MIC assay of test compounds combined with ceftazidime (8 μg/mL); settings: ceftazidime 8 μg/mL fixed
Experimental: (§1) The bacterial strains used for the minimum inhibitory concentration (MIC) test were frozen in a −80° C. ULT freezer and thawed 2 days before use. A small amount of frozen bacterial strains were scraped using a sterile inoculating loop, streaked onto a TSA solid culture dish for inoculation, and then cultured for 20-24 h at 35±2° C. in a normal atmospheric environment. 5-10 colonies with similar morphology were picked from the culture dish using a sterile inoculating loop and then re-streaked onto a suitable solid culture dish. Then the dish was placed into a normal incubator for culture for 20-24 h at 35±2° C. 5-10 single bacterial colonies were picked from the solid culture dish, resuspended in 500 μL of 0.9% NaCl, and adjusted to an OD600 of 0.1-0.15 with a spectrophotometer. The bacteria were then diluted 300-fold with 1.1×CAMHB. […] Dilution of test compounds: […] 2 μL of each compound in the dilution master plate of the test compounds was transferred to the corresponding well of the assay plates. In the mean time, 2 μL of 100% DMSO was transferred to the compound-free wells (GC and SC wells). (1) 8 μL of imipenem in the additive plate of imipenem was transferred to the corresponding wells of the assay plates; (2) 8 μL of ceftazidime in the additive plate of ceftazidime was transferred to the corresponding wells of the assay plates; (3) 8 μL of ampicillin in the additive plate of ampicillin was transferred to the corresponding wells of the assay plates. 90 μL of corresponding bacterial inocula were added to wells (except for SC wells) of the assay plates. After addition, the 6 assay plates were covered by sterile covers. The mixtures in the assay plates were centrifuged by a centrifuge at 1000 rpm for 30 s, and mixed uniformly by oscillating with a microplate oscillator at 800 rpm for 1 min, and then cultured in a common incubator for 16-20 h at 35±2° C. The minimum inhibitory concentration of each compound was recorded by reference to guidelines from the Clinical and Laboratory Standards Institute. […] The effect of the test compounds in combination with imipenem, ceftazidime, and ampicillin was also tested. […] The bacterial inocula in the assay plates were resuscitated from TSA and diluted in CAMHB, while growth controls (GC wells) and sterile controls (SC wells) were set up in the assay plates. The minimum inhibitory concentration of each compound combination against different bacteria was observed and recorded after the assay plates were incubated in a common incubator at 35±2° C. for 16-20 h, and the results are shown in Tables 1-3.

[2] = tested on: Klebsiella pneumoniae XNWB 0005; test: as above; settings: ceftazidime 8 μg/mL fixed
Experimental: as §1

[3] = tested on: Klebsiella pneumoniae XNWB 0002; test: as above; settings: ceftazidime 8 μg/mL fixed
Experimental: as §1

[4] = tested on: Pseudomonas aeruginosa XNWB 0008; test: as above; settings: ceftazidime 8 μg/mL fixed
Experimental: as §1

[5] = tested on: Klebsiella pneumoniae XNWB 0003; test: as above; settings: ceftazidime 8 μg/mL fixed
Experimental: as §1

[6] = tested on: Klebsiella pneumoniae XNWB 0006; test: as above; settings: ceftazidime 8 μg/mL fixed
Experimental: as §1

[7] = tested on: Klebsiella pneumoniae XNWB 0001; test: as above; settings: ceftazidime 8 μg/mL fixed
Experimental: as §1

[8] = tested on: Acinetobacter baumannii XNWB 0007; test: as above; settings: ceftazidime 8 μg/mL fixed
Experimental: as §1

[9] = tested on: Klebsiella pneumoniae XNWB 0004; test: MIC assay of test compounds combined with imipenem (4 μg/mL); settings: imipenem 4 μg/mL fixed
How it was run: (§2)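 Frozen strains, thawed and passaged twice on TSA (35±2 °C, 20-24 h), supplied colonies standardised in saline to OD600 0.1-0.15. These suspensions, diluted 300× in 1.1×CAMHB, were exposed to graded compound with constant partner antibiotic; MICs were read after 16-20 h at 35±2 °C.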

[10] = tested on: Klebsiella pneumoniae XNWB 0005; test: as above; settings: imipenem 4 μg/mL fixed
How it was run: as §2

[11] = tested on: Klebsiella pneumoniae XNWB 0002; test: as above; settings: imipenem 4 μg/mL fixed
How it was run: as §2

[12] = tested on: Pseudomonas aeruginosa XNWB 0008; test: as above; settings: imipenem 4 μg/mL fixed
How it was run: as §2

[13] = tested on: Klebsiella pneumoniae XNWB 0003; test: as above; settings: imipenem 4 μg/mL fixed
How it was run: as §2

[14] = tested on: Klebsiella pneumoniae XNWB 0006; test: as above; settings: imipenem 4 μg/mL fixed
How it was run: as §2

[15] = tested on: Klebsiella pneumoniae XNWB 0001; test: as above; settings: imipenem 4 μg/mL fixed
How it was run: as §2

[16] = tested on: Acinetobacter baumannii XNWB 0007; test: as above; settings: imipenem 4 μg/mL fixed
How it was run: as §2

Row | Compound | The minimum concentration of test compounds combined with ceftazidime (8 μg/mL) for bacteriostasis [1] | The minimum concentration of test compounds combined with ceftazidime (8 μg/mL) for bacteriostasis [2] | The minimum concentration of test compounds combined with ceftazidime (8 μg/mL) for bacteriostasis [3] | The minimum concentration of test compounds combined with ceftazidime (8 μg/mL) for bacteriostasis [4] | The minimum concentration of test compounds combined with ceftazidime (8 μg/mL) for bacteriostasis [5] | The minimum concentration of test compounds combined with ceftazidime (8 μg/mL) for bacteriostasis [6] | The minimum concentration of test compounds combined with ceftazidime (8 μg/mL) for bacteriostasis [7] | The minimum concentration of test compounds combined with ceftazidime (8 μg/mL) for bacteriostasis [8] | The minimum concentration of test compounds combined with imipenem (4 μg/mL) for bacteriostasis [9] | The minimum concentration of test compounds combined with imipenem (4 μg/mL) for bacteriostasis [10] | The minimum concentration of test compounds combined with imipenem (4 μg/mL) for bacteriostasis [11] | The minimum concentration of test compounds combined with imipenem (4 μg/mL) for bacteriostasis [12] | The minimum concentration of test compounds combined with imipenem (4 μg/mL) for bacteriostasis [13] | The minimum concentration of test compounds combined with imipenem (4 μg/mL) for bacteriostasis [14] | The minimum concentration of test compounds combined with imipenem (4 μg/mL) for bacteriostasis [15] | The minimum concentration of test compounds combined with imipenem (4 μg/mL) for bacteriostasis [16]
1 | NCCCCc1nnc([C@@H]2CC3(CC3)[C@@H]3CN2C(=O)N3OS(=O)(=O)O)o1 [Example 7, (1R,4S)-4-(5-(4-aminobutyl)-1,3,4-oxadiazol-2-yl)-6-oxo-5,7-diazaspiro[bicycle[3.2.1]octane-2,1′-cyclopropan]-7-yl sulfate] | B (B: 8-16 μg/mL) | B (B: 8-16 μg/mL) | A (A: <8 μg/mL) | C (C: 16-128 μg/mL) | B (B: 8-16 μg/mL) | A (A: <8 μg/mL) | B (B: 8-16 μg/mL) | C (C: 16-128 μg/mL) | A (A: <8 μg/mL) | A (A: <8 μg/mL) | A (A: <8 μg/mL) | B (B: 8-16 μg/mL) | A (A: <8 μg/mL) | A (A: <8 μg/mL) | A (A: <8 μg/mL) | B (B: 8-16 μg/mL)
2 | CNCCc1cc([C@@H]2CC3(CC3)[C@@H]3CN2C(=O)N3OS(=O)(=O)O)no1 [Example 42, (1R,4S)-4-(5-(2-(methylamino)ethyl)isoxazol-3-yl)-6-oxo-5,7-diazaspiro[bicycle[3.2.1]octane-2,1′-cyclopropan]-7-yl sulfate] | B (B: 8-16 μg/mL) | A (A: <8 μg/mL) | A (A: <8 μg/mL) | C (C: 16-128 μg/mL) | A (A: <8 μg/mL) | A (A: <8 μg/mL) | A (A: <8 μg/mL) | C (C: 16-128 μg/mL) | A (A: <8 μg/mL) | A (A: <8 μg/mL) | A (A: <8 μg/mL) | B (B: 8-16 μg/mL) | A (A: <8 μg/mL) | A (A: <8 μg/mL) | A (A: <8 μg/mL) | C (C: 16-128 μg/mL)
